{"source": "paper PMC8103899", "about": "“Allyl Isothiocyanate: A TAS2R38 Receptor-Dependent Immune Modulator at the Interface Between Personalized Medicine and Nutrition” (Frontiers in Immunology, 2021)", "key": {"E. coli K-12": {"system": "E. coli K-12", "assay": "Bactericidal activity of PBMC co-incubated with E. coli K-12 (DiBAC4(3) depolarization)", "format": "cell-based, Escherichia coli", "conditions": "MOI 0.5", "experimental": "E. coli K-12 bacteria were grown in Luria-Bertani medium at 37°C to mid-logarithmic-phase as determined by OD600. Next, PBMC (1x10^6/mL) were incubated with E. coli K-12 at MOI 0.5 in RPMI 1640 medium supplemented with 2% heat-inactivated fetal calf serum and exposed to the test compounds for 120 min in a humidify condition (5% CO2, 37°C). Thereafter, 1 µg/mL of the membrane potential dye DiBAC4(3) was added and incubated for 10 min at room temperature in the dark. Subsequently, the cells were washed once with PBS and centrifuged at 4500 x g for 10 min. The percentage of depolarized bacteria was determined using a FACSCalibur™ flow cytometer with an excitation wavelength of 493 nm.\nFigure 3 AITC stimulates NO production and exerts bactericidal activity in dependence of the TAS2R38 haplotype. […] Fluorescence signals (ex 488 nm, em 530± 30 nm) were monitored using a FACSCalibur™. The median fluorescence intensity (MFI) of each sample was calculated using FlowJo software (Ashland, Oregon, USA). […] Cell membrane potential depolarization was determined by staining bacteria with 1 µg/ml DiBAC4(3) for 10 min, in the dark at room temperature. […] Significance of difference was calculated relative to the respective control by one-way ANOVA. […]"}, "p-ERK1/2, p-p38, p-Akt": {"system": "p-ERK1/2, p-p38, p-Akt", "assay": "Immunoblotting of MAPK and AKT phosphorylation in PBMC", "format": "cell-based, human", "experimental": "Proteins of interest were analyzed by immunoblotting as described before ([36]). Densitometric analysis was done to quantify the immunoblots using Quantity One software (Bio-Rad, Munich, Germany) and normalized against β-actin.\nFigure 4 AITC mediates MAPK down-stream signaling in dependence of the TAS2R38 haplotype. (A, B) PBMC were treated with test compounds for the indicated time points and pellets were collected for protein expression analysis. Representative immunoblots are given. Densitometric analysis was done to quantify the immunoblots using Quantity One software (Bio-Rad, Munich, Germany) and normalized against β-actin, which was used as loading control. The graphs show phosphorylated ERK1/2, p-38 or Akt, protein levels relative to control as quantified by pixel densitometry. Bars are mean + SD; *p < 0.05, **p < 0.01 (n ≥ 2). Significance of difference was calculated relative to the corresponding solvent control determined by one-way ANOVA (SC, 0.01% DMSO).\n(§1) Figure 5 In bacterial LPS stimulated PBMC, AITC triggers MAPK activation and TNF-α inhibition in dependence of the TAS2R38 genotype. PBMC were exposed to AITC or 0.01% DMSO (SC) together with 100 pg/mL LPS. (A) Representative immunoblots are given. Densitometric analysis was done to quantify the immunoblots using Quantity One software (Bio-Rad, Munich, Germany) and normalized against β-actin, which was used as loading control. (B, C) Cytokine secretion at 3 and 24 h was analyzed using ELISA kits. (D) Time kinetic of TNF-α mRNA expression. Results are means + SD and given as fold of the solvent control. Results were calculated relative to the corresponding solvent control (SC, 0.01% DMSO). Significance of difference was determined compared to the respective SC by one-way ANOVA, *p < 0.05, **p < 0.01."}, "IL-1β": {"system": "IL-1β", "assay": "IL-1β release of LPS stimulated PBMC (ELISA)", "format": "cell-based, human", "conditions": "LPS activated PBMC", "experimental": "PBMC (1x10^6/mL) cultured in RPMI 1640 medium supplemented with 10% heat-inactivated fetal calf serum, 2 mM L-glutamine, 100 U/ml penicillin/streptomycin were stimulated with 0.5 ng/ml CD3/CD28 MAbs and exposed to the test compounds. After 24 h, supernatants were collected and stored at -80°C until analysis using the human MACSplex cytokine 12-kit (Miltenyi Biotec GmbH, Bergisch Gladbach, Germany) according to manufacturer’s protocol to quantify cytokine secretion. Supernatants were also used for photometric quantification by the human TNF-alpha or IL-1β ELISA Ready-Set-Go kit from eBIoscience (Frankfurt, Germany) according to the manufacturer’s instructions.\nas §1, with “(D) Time kinetic of TNF-α mRNA expression. Results are means + SD and given as fold of the solvent control.” left out"}, "TNF-alpha mRNA": {"system": "TNF-alpha mRNA", "assay": "TNF-alpha mRNA expression in LPS stimulated PBMC (qRT-PCR)", "format": "cell-based, human", "conditions": "LPS stimulated PBMC from PAV/PAV subjects, transient", "experimental": "as §1"}, "TRPA1": {"system": "TRPA1", "conditions": "TRPA1 overexpressing cells, read-out: EC50 for the activation of TRPA1, cited from earlier work"}, "TAS2R38-PAV receptor": {"system": "TAS2R38-PAV receptor", "parameters": "method as in PMID 20022913", "conditions": "cited from earlier work"}}, "note": "Where two headings read alike, the source gives them in different places.", "data": [{"smiles": "C=CCN=C=S", "note": "[AITC, allyl isothiocyanate]", "values": [{"measurement": "bactericidal activity", "setting": "E. coli K-12; AVI/AVI cells", "result": "no effect"}, {"measurement": "bactericidal activity", "setting": "E. coli K-12; PAV/PAV cells", "result": "increased bactericidal activity"}, {"measurement": "p-ERK, p-p38 and p-Akt phosphorylation", "setting": "p-ERK1/2, p-p38, p-Akt; 5 min, 100 pg/mL LPS and AITC, PAV/PAV subjects", "result": "upregulation"}, {"measurement": "p-ERK1/2 and p-p38 phosphorylation", "setting": "p-ERK1/2, p-p38, p-Akt; PBMC, PAV/PAV group, in contrast to AVI/AVI", "result": "quick activation (5 min. AITC exposure), followed by dephosphorylation"}, {"measurement": "p-Akt phosphorylation", "setting": "p-ERK1/2, p-p38, p-Akt; PBMC, in dependence of the TAS2R38 genotype", "result": "same activation/inactivation pattern"}, {"measurement": "release of IL-1β", "setting": "IL-1β", "result": "suppressed in both AVI/AVI and PAV/PAV groups"}, {"measurement": "inhibition of TNF-alpha mRNA expression", "setting": "TNF-alpha mRNA", "result": 50, "unit": "%"}, {"measurement": "EC50", "setting": "TRPA1; ref 45", "result": "[…]"}, {"measurement": "EC50", "setting": "TRPA1; ref 46", "result": "[…]"}, {"measurement": "activation of TAS2R38 taster variant among 25 TAS2Rs", "setting": "TAS2R38-PAV receptor; HEK293T-Gα16gust44 cells transiently transfected", "result": "selectively triggered the taster variant"}, {"measurement": "activation of the TAS2R38-PAV receptor", "setting": "TAS2R38-PAV receptor", "result": "activated"}, {"measurement": "threshold concentration", "setting": "TAS2R38-PAV receptor; heterologous expressed TAS2R38-PAV, in vitro", "result": "[…]"}]}]}
